Where a name gives a salt, the structure may show the parent alone.
Tests used:
[1] = system: ConA induced mouse cytokine production model; experiment: ConA induced mouse cytokine production model, IFN-γ in the plasma; assay type: in vivo, mouse (Balb/c); conditions: one hour before second ConA treatment
Protocol: In this test, mice were treated with concanavalin A (ConA) to activate lymphocytes and the medicinal effect of a test substance was evaluated based on the production of IFN-γ. A system in which cytokine production based on expression of LAT1 is induced, by treating mice with ConA twice at optimal timing, was established. To female Balb/c mice of 7 weeks old, a ConA solution (0.4 mg/mL, Concanavalin A, WAKO, 037-08774) prepared with PBS (D-PBS (−), WAKO, 049-29793) was administered (4 mg/kg, twice at an interval of 16 hours) through the tail vein. Four hours later, under anesthesia by isoflurane inhalation, blood was taken from the posterior vena cava of each of the mice. The blood was centrifuged to collect the plasma. The concentration of IFN-γ in the in plasma was measured by AlphaLISA immunoassay kit (Mouse Interferon-gamma (mIFN-γ) Kit, PerkinElmer, AL501C). Test substance was dissolved in 0.5% MC or mushed in an agate mortar, suspended in 0.5% MC to prepare a solution to be administered (1 or 3 mg/mL) and orally administered one hour before the second treatment with ConA so as to be 10 mL/kg (10 or 30 mg/kg. To Vehicle group, 0.5% MC was administered similarly so as to be 10 mL/kg). Test substances were evaluated. Suppression rates (%) were calculated in accordance with the following expression. Suppression rate (%)=100−[(average value of test substance administration group−average value of Normal group)/(average value of Vehicle group−average value of Normal group)×100] Whether the data of two groups, Normal group and Vehicle group, differ or not was determined by Student's or Welch's t test. Whether the data of Vehicle group and a test substance administration group are different or not was analyzed by parametric multiple comparison test, Dunnett test. The compounds (test substances) suppressed IFN-γ production in a dose-dependent manner.

[2] = system: activated T cells (CD4+ T cells derived from the mouse spleen); experiment: Incorporation of 3H-thymidine into activated T cells; assay type: cell-based, mouse (C57BL/6J); conditions: 3H-thymidine incorporation, mouse spleen CD4+ T cells activated with Dynabeads Mouse T-Activator CD3/CD28
Protocol: Effect of a test substance on incorporation of ^3H-thymidine was evaluated using T cells derived from the mouse spleen. The spleen was excised out from a C57BL/6J mouse euthanized, cut into pieces, ground on a cell strainer (40 μm mesh) and centrifuged to collect spleen cells. CD4+ T cells were isolated from the spleen cells by use of EasySep Mouse CD4+ T cell isolation kit (STEMCELL Technologies). CD4+ T cells were seeded to a 96-well round-bottom plate. Test substance dissolved in DMSO (dimethyl sulfoxide) or vehicle (DMSO) was added to culture medium and Dynabeads Mouse T-Activator CD3/CD28 (Thermo Fisher Scientific Inc.) was added. Culture was carried out at 37° C. in 5% CO2. After culture was carried out for 24 hours, ^3H-thymidine (PerkinElmer) diluted with the culture medium was added to individual wells. Culture was further carried out overnight at 37° C. in 5% CO2. In order to measure ^3H-thymidine incorporated in nuclei of the cells, the cells were collected on a filter plate UniFilter-96 GF/B (PerkinElmer) by use of a FilterMate Universal Harvester (PerkinElmer). After the filter plate was placed in a dryer and allowed to stand still for 2 hours or more, scintillation cocktail MicroScint-O (PerkinElmer) was added and radioactivity was measured by TopCount NXT (PerkinElmer). With the radioactivity of a group not containing a test substance being specified as 100% and the radioactivity of a group not activated being specified as 0%, relative radioactivity values of individual wells to which the test substance was added (proliferation rate, % of vehicle) were calculated. The values of “% of vehicle” were entered in analysis software Prism (Version 4.03, GraphPad Software). “Nonlinear regression Log (inhibitor) vs reaction variable tilt” was selected and sigmoid type-fitting (Bottom=0, Top=100) was carried out to calculate 50% inhibition concentration (IC50). The compound of the present invention suppresses ^3H-thymidine incorporation in activated T cells.

[3] = system: IFN-α production in mouse spleen cells; experiment: IFN-α production in mouse spleen cells stimulated with TLR9 ligand CpG-ODN D35; assay type: cell-based, mouse (C57BL/6J)
Protocol: The concentration of test substance added is 1 nM to 300 nM. The graph represents a curve showing response to concentration of a test substance, with the IFN-α production of a group not containing a test substance being specified as 100% and the IFN-α production of a group not stimulated being specified as 0%.
IFN-α production by stimulation with TLR9 ligand CpG-ODN D35 activating pDC was evaluated. Spleen cells were prepared from a C57BL/6J mouse euthanized in the same manner as in Test Example 1 and seeded to a 96-well round-bottom plate. Test substance dissolved in DMSO or vehicle (DMSO) was added to culture medium. After pre-incubation was carried out for 30 minutes, CpG-ODN […] (final concentration 1 μM) was added. Culture was carried out at 37° C. in 5% CO2. After culture was carried out for 24 hours, the culture supernatant was recovered. The concentration of IFN-α in the supernatant was measured by ELISA kit (Mouse IFN-alpha Platinum ELISA Kit, eBioscience). With the IFN-α production of a group not containing a test substance being specified as 100% and the IFN-α production of a group not activated being specified as 0%, relative values of IFN-α production of individual wells (IFN-α production rate, % of vehicle) were calculated. The values of “% of vehicle” of IFN-α production were entered in analysis software Prism (Version 5.0, GraphPad Software). […]

SMILES	Percent suppression (%) ([1]; 10 mg/kg oral)	Percent suppression (%) ([1]; 30 mg/kg oral)	IC50 [2]	further results
CC(C)C(OC(=O)[C@@H](N)Cc1cccc(S(=O)(=O)N2CC(Oc3ccccc3)(c3ccc(F)cc3)C2)c1)C(=O)N(C)C.Cl (stereo partly drawn) [Example 93, 1-(Dimethylamino)-3-methyl-1-oxobutan-2-yl (2S)-2-amino-3-(3-{[3-(4-fluorophenyl)-3-phenoxyazetidin-1-yl]sulfonyl}phenyl)propanoate monohydrochloride]	46%	34%	–	–
CC(OC(=O)[C@@H](N)Cc1cccc(S(=O)(=O)N2CC(Oc3ccc(F)cc3)(c3ccc(F)cn3)C2)c1)C(=O)N(C)C.Cl.Cl (stereo partly drawn) [Example 62, 1-(Dimethylamino)-1-oxopurpan-2-yl (2S)-2-amino-3-(3-{[3-(4-fluorophenoxy)-3-(5-fluoropyridin-2-yl)azetidin-1-yl]sulfonyl}phenyl)propanoate dihydrochloride]	43%	54%	–	–
N[C@@H](Cc1cccc(S(=O)(=O)N2CC(Oc3cccc(F)c3)(c3ccccc3)C2)c1)C(=O)O [Example 1, (2S)-2-Amino-3-(3-{[3-(3-fluorophenoxy)-3-phenylazetidin-1-yl]sulfonyl)phenyl)propanoic acid]	–	–	20 nM	IC50 ([3]; CpG-ODN stimulation 1 μM, 24 hours, ELISA): 13 nM; suppressive action on IFN-α production ([3]; test substance 1 nM to 300 nM): concentration-dependent suppressive action
Cl.[2H]c1c([2H])c([2H])c(OC2(c3ccccc3)CN(S(=O)(=O)c3cccc(C[C@H](N)C(=O)OC(C(=O)N(C)C)C(C)C)c3)C2)c([2H])c1[2H] (stereo partly drawn) [Example 25, 1-(Dimethylamino)-3-methyl-1-oxobutan-2-yl (2S)-2-amino-3-(3-{3-phenyl-3-[(^2H5)phenyloxy]azetidin-1-sulfonyl}phenyl)propanoate monohydrochloride]	31%	51%	–	–
CC(C)C(OC(=O)[C@@H](N)Cc1cccc(S(=O)(=O)N2CC(Oc3ccc(F)cc3)(c3ccc(F)cn3)C2)c1)C(=O)N(C)C.Cl.Cl (stereo partly drawn) [Example 69, 1-(Dimethylamino)-3-methyl-1-oxobutan-2-yl (2S)-2-amino-3-(3-{[3-(4-fluorophenoxy)-3-(5-fluoropyridin-2-yl)azetidin-1-yl]sulfonyl}phenyl)propanoate dihydrochloride]	33%	44%	–	–
CC(C)C(OC(=O)[C@@H](N)Cc1cccc(S(=O)(=O)N2CC(Oc3ccccc3)(c3ccccc3)C2)c1)C(=O)N(C)C.Cl (stereo partly drawn) [Example 91, 1-(Dimethylamino)-3-methyl-1-oxobutan-2-yl (2S)-2-amino-3-[3-(3-phenoxy-3-phenylazetidin-1-sulfonyl)phenyl]propanoate monohydrochloride]	55%	53%	–	–
CCC(=O)c1ccc(OC2(c3ccc(F)cc3)CN(S(=O)(=O)c3cccc(C[C@H](N)C(=O)O)c3)C2)cc1 [Example 19, (2S)-2-Amino-3-{3-[3-(4-fluorophenyl)-3-(4-propanoylphenoxy)azetidin-1-yl]sulfonylphenyl}propanoic acid monotrifluoroacetate]	–	–	30 nM	–
N#Cc1ccc(OC2(c3ccc(F)c(F)c3)CN(S(=O)(=O)c3cccc(C[C@H](N)C(=O)O)c3)C2)cc1 [Example 38, (2S)-2-Amino-3-{3-[3-(4-cyanophenoxy)-3-(3,4-difluorophenyl)azetidin-1-sulfonyl]phenyl}propanoic acid monohydrochloride]	–	–	17 nM	–
Cl.[2H]c1c([2H])c([2H])c(OC2(c3ccc(F)cc3)CN(S(=O)(=O)c3cccc(C[C@H](N)C(=O)OC(C(=O)N(C)C)C(C)C)c3)C2)c([2H])c1[2H] (stereo partly drawn) [Example 27, 1-(Dimethylamino)-3-methyl-1-oxobutan-2-yl (2S)-2-amino-3-(3-{3-(4-fluorophenyl)-3-[(^2H5)phenyloxy]azetidin-1-sulfonyl}phenyl)propanoate monohydrochloride]	47%	58%	–	–
N[C@@H](Cc1cccc(S(=O)(=O)N2CC(Oc3ccc(Cl)cc3)(c3ccccc3)C2)c1)C(=O)O [Example 87]	–	–	19 nM	–
N#Cc1ccc(OC2(c3ccccc3)CN(S(=O)(=O)c3cccc(C[C@H](N)C(=O)O)c3)C2)cc1 [Example 18, (2S)-Amino-3-(3-{[3-(4-cyanophenoxy)-3-phenylazetidin-1-yl]sulfonyl}phenyl)propanoic acid]	–	–	14 nM	–
